These results are taken from patent US20100247491A1, “Potentiation of Stem Cell Homing and Treatment of Organ Dysfunction or Organ Failure” (priority 2007, published 2010).

One experiment deals with MSCs. Kind of experiment: MSC migration towards SDF-1 in a transwell culture system. Type of experiment: cell-based, Fisher 344 rats. As to conditions: pre-incubation of MSCs with the agent, FIG. 7. The source says:
AMD 3100 is a non-peptide antagonist of CXCR4 and Diprotin A (Ile-Pro-Ile, Peptides International, Louisville, Ky.) is a commonly used example of a CD26 inhibitor. […] Thus, the invention provides for the use of a CD26 inhibitor for the treatment of renal organ dysfunction (i.e., damage or injury), particularly, in combination with the use of MSCs. For example, it is believed that inhibition of SDF-1 inactivation will increase the homing of administered MSCs to an injured kidney and potentiate renal repair.
Bone marrow-derived MSCs from Fisher 344 rats were used for in vitro experiments. […] In addition, cultured MSCs express functional CD26 and can effectively inactivate SDF-1. […] As a result of the in vitro data, it is reasoned that inhibiting CD26 will augment the SDF-1-CXCR4 mediated chemotactic activity of MSCs in vivo. Thus, the invention relates to pre-treatment or co-administration of MSCs with a CD26 inhibitor to augment the homing and renal protective functions of MSCs administered to a subject to treat a disease involving organ failure or organ dysfunction.

A further experiment concerns rats with I/R ARF. The experiment is described as follows: I/R ARF rat model, CD26 inhibitor given before MSCs (Example II). Type of experiment: in vivo. To be noted: MSCs following Diprotin A. The source says:
All procedures involving animals are approved by the respective Institutional Animal Care and Use Committees of the University of Utah, Veterans Affairs Medical Center (Salt Lake City, Utah), Indiana University (Indianapolis, Ind.), and the University of Hamburg (Hamburg, Germany). Animals are housed at a constant temperature and humidity, with a 12:12-h light-dark cycle, and have unrestricted access to a standard diet and tap water. Adult male Sprague-Dawley (SD) and Fisher 344 (F344) rats weighing 200-300 g are preferably used (Charles River, Wilmington, Mass.).
I/R ARF is induced in isoflurane-anesthetized animals, and rectal temperature is maintained at 37° C. After a midabdominal laparatomy, kidneys are exposed and renal pedicles are clamped with atraumatic vascular clamps for about 40 min. […]
Quantification of cell numbers. CFDA-labeled green fluorescing cells are examined and quantified in kidneys at 2, 24, 36, 48, 60, and/or 72 h after ARF and cell infusions. Nuclei are stained with either Hoechst 33342 or propidium iodide, and nuclei are counted in at least three high-power fields (HPF) per section based on a calibrated confocal micrometer measurement bar. After this, total cell numbers of the studied tissue sections are calculated based on the number of nuclei and surface area of the section.
Renal function may be assessed by serum creatinine and/or blood urea nitrogen levels. […]

The subject of the next experiment is Sca-1+lin-donor cells. As to conditions: donor cells treated with 5 mM Diprotin A for 15 minutes before transplant; FIG. 4, Christopherson II et al. (2004); cited from earlier work.

Turning to `c1cc(CN2CCCNCCNCCCNCC2)ccc1CN1CCCNCCNCCCNCC1` [AMD 3100], the “MSC migration towards SDF-1” value in the experiment with MSCs was “decreased”.

H-Ile-Pro-Ile-OH [Diprotin A]: in the experiment on MSCs, the “MSC migration towards SDF-1” value is “significantly increased”. In addition, in the experiment with rats with I/R ARF (by at least days 2 and/or 3, relative to MSC only treated animals), the “renal function (serum creatinine and/or blood urea nitrogen)” value is recorded as “significantly improved renal function”. Further, the “migration of MSCs to the kidney” value in the experiment on rats with I/R ARF (relative to MSC only treated animals) is listed as “increased migration of MSCs to the kidney”. Moreover, the “homing of HSCs from the circulation to bone” value with Sca-1+lin-donor cells is reported as “can increase homing of HSCs”.
